Where two headings read alike, the source gives them in different places.
Key:
[1] = target: T1, human Cot catalytic domain (30-397 amino acids) (Homo sapiens, UniProt P41279); assay: High Throughput Cot Biochemical Assay (KinEASE TR-FRET); settings: 400 μM ATP, read-out: IC50 HTRF
T1 construct: Purified recombinant human Cot catalytic domain (30-397 amino acids) was purchased from Cama Biosciences; purchased Cama Biosciences (so in the source)
How it was run: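 TR-FRET readout: Eu-labeled phospho-specific antibody binds XL665-tagged STK3 peptide after phosphorylation by Cot (aa 30-397, 5 nM). Conditions: 400 μM ATP, 1 μM peptide, MOPS pH 7.0 buffer with MgOAc, DTT, BSA, NP-40, glycerol; 0.1% DMSO.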

[2] = system: TNFα production in LPS-stimulated human monocytes; assay: Cot Monocyte TNFα Cell Based Assay; settings: for EC50: read-out: EC50 TNF
Protocol: Example 60: Cot Monocyte TNFα Cell Based Assay
The cell suspension was then plated at a density of 5,000 cells/well onto black 384 well Greiner clear bottom plates. Plates were pre-spotted with test compounds and serially diluted in DMSO where 200 nL/well were delivered using the Echo 550 acoustic liquid dispenser (Labcyte®) for a final DMSO concentration of 0.5%. Plated cells were treated with compound for 1 hour at 37° C. Cells were then stimulated with 50 pg/ml of LPS (Sigma) excluding outside columns of plate used for unstimulated cell control wells. Cells were incubated for an additional 4 hours at 37° C. Cells were then spun out of the media and 5 ul of sample were taken and analyzed for total TNFα content using the TR-FRET Human TNFα detection system (CisBio). This system utilizes two labeled antibodies (cryptate and XL665) that bind to two different epitopes of the TNFα molecule and produce FRET signal proportional to the concentration of TNFα in the sample. Detection antibodies are mixed 50:50 and 5 μL were dispensed into each well. Plates were covered with clear seals and incubated at room temp overnight. […] Percent of control was calculated as follows: % Control=100×(RatioSample−Ratio0% stimulation)/(Ratio100% Stimulation−Ratio0% Stimulation) where unstimulated cells (0% stimulation) were the negative control and stimulated cells (100% stimulation) were used as the positive control.

[3] = LPS-stimulated human monocytes, TNFα TR-FRET
[4] = Cot KinEASE TR-FRET (HTRF) biochemical assay
[5] = Homo sapiens, Monocyte, TNFα in LPS-stimulated human monocytes
[6] = Homo sapiens, Monocyte, LPS-stimulated human monocytes, TNFα TR-FRET

T1 sequence (P41279 30-397): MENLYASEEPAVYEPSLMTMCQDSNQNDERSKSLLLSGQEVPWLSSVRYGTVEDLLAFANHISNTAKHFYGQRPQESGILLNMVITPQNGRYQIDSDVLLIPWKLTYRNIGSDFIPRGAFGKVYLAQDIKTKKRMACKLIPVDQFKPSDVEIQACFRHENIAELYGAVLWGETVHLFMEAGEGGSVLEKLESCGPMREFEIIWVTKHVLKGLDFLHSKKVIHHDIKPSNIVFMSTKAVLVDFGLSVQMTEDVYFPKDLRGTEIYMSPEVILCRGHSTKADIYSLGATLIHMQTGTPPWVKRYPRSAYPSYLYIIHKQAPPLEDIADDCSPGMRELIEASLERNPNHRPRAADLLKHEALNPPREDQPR

Row | EC50 [2, 5] | Compound | other results
1 | – | 8-chloro-4-((4-cyna-1- phenylbutyl)amino)-6-(((1- cyclopropyl-1H-1,2,3-triazol-4- yl)(4-fluorophenyl)methyl- d)amino)quinoline-3-carbonitrile [Example 981] | IC50 ([1]; Cot KinEASE TR-FRET): 22 nM; EC50 [2, 3]: 318 nM
2 | 377 nM | [2H]C(Nc1cc(Cl)c2ncc(C#N)c(NC3[C@H]4CCC[C@@H]34)c2c1)(c1ccc(F)cc1)c1cn(C2CC2)nn1 (stereo in doubt) [Example 117, 4-(((1R,5S)-bicyclo[3.1.0]hexan-6-yl)amino)-8-chloro-6-(((S)-(1-cyclopropyl-1H-1,2,3-triazol-4-yl) (4-fluorophenyl)methyl-d)amino)quinoline-3-carbonitrile] | IC50 [1, 4]: 16 nM
3 | > 10000 nM | [2H]C(Nc1cc(Cl)c2ncc(C#N)c(N[C@@H]3CCCC[C@@H]3N)c2c1)(c1ccc(F)cc1)c1cn(C2CC2)nn1 (stereo in doubt) [Example 228, 4-(((1R,2S)-2-aminocyclohexyl)amino)-8-chloro-6-(((S)-(1-cyclopropyl-1H-1,2,3-triazol-4-yl)(4-fluorophenyl)methyl-d)amino)quinoline-3-carbonitrile] | IC50 [1, 4]: 807 nM
4 | > 10000 nM | [2H]C(Nc1cc(Cl)c2ncc(C#N)c(N[C@H]3CCCC[C@H]3NC(=O)OC(C)(C)C)c2c1)(c1ccc(F)cc1)c1cn(C2CC2)nn1 (stereo in doubt) [Example 231, tert-butyl ((1R,2S)-2-((8-chloro-3-cyano-6-(((S)-(1-cyclopropyl-1H-1,2,3-triazol-4-yl)(4-fluorophenyl)methyl-d)amino)quinolin-4-yl)amino)cyclohexyl)carbamate] | IC50 [1, 4]: > 10000 nM
5 | 270 nM | [2H]C(Nc1cc(Cl)c2ncc(C#N)c(NC3C4CCCC43)c2c1)(c1ccc(F)cc1)c1cn(C2CC2)nn1 (stereo in doubt) [Example 242, 4-(bicyclo[3.1.0]hexan-6-ylamino)-8-chloro-6-(((S)-(1-cyclopropyl-1H-1,2,3-triazol-4-yl)(4-fluorophenyl)methyl-d)amino)quinoline-3-carbonitrile] | IC50 [1, 4]: 8 nM
6 | – | CCN1CCC(n2cc(CNc3cc(Cl)c4ncc(C#N)c(Nc5ccc(F)c(Cl)c5)c4c3)nn2)CC1 [Comparative Example 1, reference compound] | IC50/EC50 [nM]: EC50 (TNFα, monocytes) ([2]; second value of the cell IC50/EC50, human monocytes, 50 pg/ml LPS, 4 hours): 310 nM
7 | 1260 nM | CC(C)n1cc([C@@H](Nc2cc(Cl)c3ncc(C#N)c(Nc4ccc(F)c(Cl)c4)c3c2)c2cccc(COCCN(C)C)c2)nn1 [Compound 40] | –
8 | 504 nM | [2H][C@](Nc1cc(Cl)c2ncc(C#N)c(NCC3(CC)CCC3)c2c1)(c1ccc(F)cc1)c1cn(C2CC2)nn1 [Example 261, (S)-8-chloro-6-(((1-cyclopropyl-1H-1,2,3-triazol-4-yl)(4-fluorophenyl)methyl-d)amino)-4-(((1-ethylcyclobutyl)methyl)amino)quinoline-3-carbonitrile] | –
9 | – | [2H][C@](Nc1cc(Cl)c2ncc(C#N)c(NC3CN4CCC3CC4)c2c1)(c1ccc(F)cc1)c1cn(C2CC2)nn1 (stereo partly drawn) [Example 317, 8-chloro-6-(((S)-(1-cyclopropyl-1H-1,2,3-triazol-4-yl)(4-fluorophenyl)methyl-d)amino)-4-(quinuclidin-3-ylamino)quinoline-3-carbonitrile] | EC50 ([2]; Homo sapiens, Monocyte): 8260 nM
10 | 426 nM | [2H][C@](Nc1cc(Cl)c2ncc(C#N)c(NCC3(C)CCOCC3)c2c1)(c1ccc(F)cc1)c1cn(-c2cccnc2)nn1 [Example 332, (S)-8-chloro-6-(((4-fluorophenyl)(1-(pyridin-3-yl)-1H-1,2,3-triazol-4-yl)methyl-d)amino)-4-(((4-methyltetrahydro-2H-pyran-4-yl)methyl)amino)quinoline-3-carbonitrile] | –
11 | 308 nM | CC[C@@H](Nc1c(C#N)cnc2c(Cl)cc(N[C@@H](c3ccc(F)cc3)c3cn(-c4ccccc4)nn3)cc12)c1ccccc1 [Example 392, 8-chloro-6-(((S)-(4-fluorophenyl)(1-phenyl-1H-1,2,3-triazol-4-yl)methyl)amino)-4-(((R)-1-phenylpropyl)amino)quinoline-3-carbonitrile] | –
12 | 1230 nM | Cc1ccccc1[C@H](Nc1cc(Cl)c2ncc(C#N)c(Nc3cnc(F)c(F)c3)c2c1)c1c[nH]nn1 [Example 396, (S)-8-chloro-4-((5,6-difluoropyridin-3-yl)amino)-6-((o-tolyl(1H-1,2,3-triazol-4-yl)methyl)amino)quinoline-3-carbonitrile] | –
13 | 734 nM | N#Cc1cnc2c(Cl)cc(N[C@@H](c3ccccc3)c3c[nH]nn3)cc2c1Nc1cnc(F)c(F)c1 [Example 582, (S)-8-chloro-4-((5,6-difluoropyridin-3-yl)amino)-6-((phenyl(1H-1,2,3-triazol-4-yl)methyl)amino)quinoline-3-carbonitrile] | –
14 | 1530 nM | CC(C)(C)N1CCC(n2cc([C@@H](Nc3cc(Cl)c4ncc(C#N)c(Nc5csc(Cl)c5)c4c3)c3ccccc3)nn2)CC1 [Example 641, (S)-6-(((1-(1-(tert-butyl)piperidin-4-yl)-1H-1,2,3-triazol-4-yl)(phenyl)methyl)amino)-8-chloro-4-((5-chlorothiophen-3-yl)amino)quinoline-3-carbonitrile] | –
15 | 1090 nM | CC(C)(C)N1CCC(n2cc([C@@H](Nc3cc(Cl)c4ncc(C#N)c(Nc5cc(F)c(F)c(Cl)c5)c4c3)c3ccc(Cl)cc3)nn2)CC1 [Example 661, (S)-6-(((1-(1-(tert-butyl)piperidin-4-yl)-1H-1,2,3-triazol-4-yl)(4-chlorophenyl)methyl)amino)-8-chloro-4-((3-chloro-4,5-difluorophenyl)amino)quinoline-3-carbonitrile] | –
16 | 1970 nM | CC(C)(C)N1CCC(n2cc([C@@H](Nc3cc(Cl)c4ncc(C#N)c(Nc5ccc(F)c(Cl)c5Cl)c4c3)c3ccc(Cl)cc3)nn2)CC1 [Example 665, (S)-6-(((1-(1-(tert-butyl)piperidin-4-yl)-1H-1,2,3-triazol-4-yl)(4-chlorophenyl)methyl)amino)-8-chloro-4-((2,3-dichloro-4-fluorophenyl)amino)quinoline-3-carbonitrile] | –
17 | 1240 nM | CC(C)(C)N1CCC(n2cc([C@@H](Nc3cc(Cl)c4ncc(C#N)c(Nc5cccc(Cl)c5)c4c3)c3ccc(Cl)cc3)nn2)CC1 [Example 776, (S)-6-(((1-(1-(tert-butyl)piperidin-4-yl)-1H-1,2,3-triazol-4-yl)(4-chlorophenyl)methyl)amino)-8-chloro-4-((3-chlorophenyl)amino)quinoline-3-carbonitrile] | –
18 | 311 nM | N#CCn1cc([C@@H](Nc2cc(Cl)c3ncc(C#N)c(Nc4ccc(F)c(Cl)c4)c3c2)c2ccc(F)cc2)nn1 [Example 815, (S)-8-chloro-4-((3-chloro-4-fluorophenyl)amino)-6-(((1-(cyanomethyl)-1H-1,2,3-triazol-4-yl)(4-fluorophenyl)methyl)amino) quinoline-3-carbonitrile] | –
19 | – | [2H][C@](Nc1cc(Cl)c2ncc(C#N)c(N[C@H](CCS(C)(=O)=O)c3ccccc3)c2c1)(c1ccc(F)cc1)c1cn(C2CC2)nn1 [Example 932, 8-chloro-6-(((1-cyclopropyl-1H-1,2,3-triazol-4-yl)(4-fluorophenyl)methyl-d)amino)-4-(((R)-3-(methylsulfonyl)-1-phenylpropyl)amino)quinoline-3-carbonitrile] | EC50 [2, 6]: 505 nM
20 | – | CC(C)(C)CNc1c(C#N)cnc2c(Cl)cc(NC(c3cn(C4(CO)CC4)nn3)c3ccccc3Cl)cc12 (stereo not drawn) [Example 964, 8-chloro-6-(((2-chlorophenyl) (1-(1-(hydroxymethyl)cyclopropyl)-1H-1,2,3-triazo1-4-yl)methyl-d)amino)-4-(neopentylamino)quinoline-3-carbonitrile] | EC50 [2, 3]: 254 nM
21 | – | CC(C)(C)CNc1c(C#N)cnc2c(Cl)cc(N[C@@H](c3ccccc3)c3cn(C4(C(F)F)CC4)nn3)cc12 [Example 1058, (S)-8-chloro-6-(((1-(1-(difluoromethyl)cyclopropyl)-1H-1,2,3-triazo1-4-yl)(phenyl)methyl)amino)-4-(neopentylamino)quinoline-3-carbonitrile] | EC50 [2, 6]: 314 nM
22 | – | Cc1cc(C#N)ccc1[C@H](Nc1cc(Cl)c2ncc(C#N)c(NCC(C)(C)C)c2c1)c1cn(C2(C(F)(F)F)CC2)nn1 [Example 1099, (S)-8-chloro-6-(((4-cyano-2-methylphenyl)(1-(1-(trifluoromethyl)cyclopropyl)-1H-1,2,3-triazol-4-yl)methyl)amino)-4-(neopentylamino)quinoline-3-carbonitrile] | EC50 [2, 6]: 188 nM
